Test results from patent publication US20210309658A1, “ARYL COMPOUNDS FOR THE TREATMENT AND PROPHYLAXIS OF BACTERIAL INFECTION” (Hoffmann-La Roche Inc., priority 2018, published 2021).
In brackets after ≈: the same amount, converted by molar mass. Where two headings read alike, the source gives them in different places.

Legend:
Format in all cases: cell-based
E. coli (BW25113) = test: 50% growth inhibitory concentration (IC50) determination assay, E. coli; details: Escherichia coli, read-out: IC50 (μM) E. coli K12 BW25113
Procedure: (§1) The in vitro antimicrobial activity of the compounds against E. coli (BW25113, obtained from Coli Genetic Stock Center, #7636) and K. pneumoniae (ATCC10031) was determined according to the following procedure:
(§2) The assay used a 10-points Iso-Sensitest broth medium to measure quantitatively the in vitro activity of the compounds against E. coli BW25113 and K. pneumoniae ATCC 10031.
(§3) Stock compounds in DMSO were serially two-fold diluted (range from 50 to 0.097 μM final concentration) in 384 wells microtiter plates and inoculated with 49 μL the bacterial suspension in Iso-Sensitest broth medium to have a final cell concentration of ˜5×10^5 CFU/mL in a final volume/well of 50 μL/well. Microtiter plates were incubated at 35±2° C.
(§4) Bacterial cell growth was determined with the measurement of optical density at λ=600 nm each 20 minutes over a time course of 16 h.
(§5) Growth inhibition was calculated during the logarithmic growth of the bacterial cells with determination of the concentration inhibiting 50% (IC50) of the growth.

[1] = test system: K. pneumoniae (ATCC10031); test: 50% growth inhibitory concentration (IC50) determination assay, K. pneumoniae; details: Klebsiella pneumoniae, read-out: IC50 (μM) K. pneumoniae ATCC10031
Procedure: as §1, §2, §3, §4, §5

E. coli (ATCC 25922) = test: Minimal Inhibitory Concentration (MIC) assay; details: Escherichia coli, ATCC25922; CAMHB, 20 hours at 35° C.; read-out: MIC (μg/mL) E. coli ATCC 25922
Procedure: The in vitro potency of compounds to inhibit E. coli (ATCC 25922) growth was assessed by MIC (Minimal Inhibitory Concentration) assay. Samples were prepared from 10 mM DMSO stock solutions. After serial 2-fold dilution in DMSO in a master plate (Greiner, Cat No: 651201), 180 μL sterile distilled water was added to 20 μL each aliquot of the samples. Then 10 μL diluted compounds were transferred into a new assay plate (Costar, 3599).
The growth medium […] Mueller Hinton Broth (CAMHB) was prepared by adding the 20 mg per liter CaCl2 and 20 mg per liter MgCl2 into the MHB medium (Jianglai Company, sterilized).
Vials of each of the test microorganisms were maintained frozen in the vapor phase of a liquid nitrogen freezer. Took out the bacteria E. coli ATCC 25922 (KWIKSTIK, 0335K) from liquid nitrogen freezer, thawed it in room temperature, and diluted the bacterial in the CAMHB medium to achieve a final inoculum of 5×10^5 CFU/mL, 90 μL CAMHB with bacteria was dispensed to the assay plate and pipetted 5 times.
Then the assay plates were incubated for 20 hours at 35° C. in ambient air. Following incubation, the MIC (μg/mL), the lowest concentration of drug that inhibits visible growth of the microorganism was read and recorded throw the microscope.

[2] = BW25113, growth inhibition, Iso-Sensitest broth, OD 600 nm over 16 h
[3] = ATCC10031, growth inhibition, Iso-Sensitest broth, OD 600 nm over 16 h, * = detection limit

IC50 (E. coli (BW25113); [2]) [µM] | IC50 [1, 3] [µM] | MIC (E. coli (ATCC 25922)) [µg/mL] | SMILES | IC50 (E. coli (BW25113); BW25113, 16 h) [µM] | IC50 ([1]; ATCC10031, 16 h) [µM]
1.56 | 0.159 | – | CCNc1cc(F)cc2c1[nH]c1ncc(-c3cnc(OCC(C)(C)N)nc3)c(-n3ccc(C(F)(F)F)n3)c12 [Example 1.30, 3-[2-(2-Amino-2-methyl-propoxy)pyrimidin-5-yl]-N-ethyl-6-fluoro-4-[3-(trifluoromethyl)pyrazol-1-yl]-9H-pyrido[2,3-b]indol-8-amine] | – | –
0.495 | ≤ 0.098 | 0.267 (≈ 0.585 µM) | CCNc1cc(F)cc2c1[nH]c1ncc(-c3cnc(N)nc3)c(-n3ccc(C(F)(F)F)n3)c12 [Example 1.06, 3-(2-Aminopyrimidin-5-yl)-N-ethyl-6-fluoro-4-[3-(trifluoromethyl)pyrazol-1-yl]-9H-pyrido[2,3-b]indol-8-amine] | – | –
0.422 | 0.098 | 0.534 (≈ 1.17 µM) | CCNc1cc(F)cc2c1[nH]c1ncc(-c3cnc(C)nc3)c(-n3ccc(C(F)(F)F)n3)c12 [Example 1.50] | – | –
1.98 | ≤ 0.098 | – | CCNc1cc(F)cc2c1[nH]c1ncc(-c3cnc(OC4CNC4)nc3)c(-n3ccc(C(F)(F)F)n3)c12 [Example 1.23, 3-[2-(Azetidin-3-yloxy)pyrimidin-5-yl]-N-ethyl-6-fluoro-4-[3-(trifluoromethyl)pyrazol-1-yl]-9H-pyrido[2,3-b]indol-8-amine] | – | –
1.62 | 0.108 | – | CNc1cc(F)cc2c1[nH]c1ncc(-c3cnc(OC)nc3)c(-n3ccc(C(F)(F)F)n3)c12 [Example 1.02, 6-Fluoro-3-(2-methoxypyrimidin-5-yl)-N-methyl-4-[3-(trifluoromethyl)pyrazol-1-yl]-9H-pyrido[2,3-b]indol-8-amine] | – | –
1.77 | 0.287 | – | CCNc1cc(F)cc2c1[nH]c1ncc(-c3cnc(NCCOC)nc3)c(-n3ccc(C(F)(F)F)n3)c12 [Example 1.13, N-Ethyl-6-fluoro-3-[2-(2-methoxyethylamino)pyrimidin-5-yl]-4-[3-(trifluoromethyl)pyrazol-1-yl]-9H-pyrido[2,3-b]indol-8-amine] | – | –
– | – | 0.751 (≈ 1.43 µM) | CCNc1cc(F)cc2c1[nH]c1ncc(-c3cnc(NC4CCOC4)nc3)c(-n3ccc(C(F)(F)F)n3)c12 (centres unmarked) [Example 1.25, N-Ethyl-6-fluoro-3-[2-(tetrahydrofuran-3-ylamino)pyrimidin-5-yl]-4-[3-(trifluoromethyl)pyrazol-1-yl]-9H-pyrido[2,3-b]indol-8-amine] | – | –
1.22 | 0.146 | – | CCNc1cc(F)cc2c1[nH]c1ncc(-c3cnc(N4CCNCC4)nc3)c(-n3ccc(C(F)(F)F)n3)c12 [Example 1.52, N-ethyl-6-fluoro-3-(2-piperazin-1-ylpyrimidin-5-yl)-4-[3-(trifluoromethyl)pyrazol-1-yl]-9H-pyrido[2,3-b]indol-8-amine] | – | –
1.29 | 0.105 | – | CCc1ncc(-c2cnc3[nH]c4c(NC)cc(F)cc4c3c2-n2ccc(C(F)(F)F)n2)cn1 [Example 1.47, 3-(2-Ethylpyrimidin-5-yl)-6-fluoro-N-methyl-4-[3-(trifluoromethyl)pyrazol-1-yl]-9H-pyrido[2,3-b]indol-8-amine] | – | –

Further lines, the compound ahead of its results:

SMILES | IC50 (E. coli (BW25113); [2]) [µM] | IC50 [1, 3] [µM] | MIC (E. coli (ATCC 25922)) [µg/mL] | IC50 (E. coli (BW25113); BW25113, 16 h) [µM] | IC50 ([1]; ATCC10031, 16 h) [µM]
CCNc1cc(F)cc2c1[nH]c1ncc(-c3cncc(C#N)c3)c(-n3ccc(C#N)n3)c12 [Example 1.05, 5-[4-(3-Cyanopyrazol-1-yl)-8-(ethylamino)-6-fluoro-9H-pyrido[2,3-b]indol-3-yl]pyridine-3-carbonitrile] | 0.701 | ≤ 0.098 | 0.314 (≈ 0.743 µM) | – | –
CCNc1cc(F)cc2c1[nH]c1ncc(-c3cncc(C(N)=O)c3)c(-n3ccc(C(F)(F)F)n3)c12 [Example 1.15, 5-[8-(Ethylamino)-6-fluoro-4-[3-(trifluoromethyl)pyrazol-1-yl]-9H-pyrido[2,3-b]indol-3-yl]pyridine-3-carboxamide] | 0.289 | ≤ 0.098 | 0.142 (≈ 0.294 µM) | – | –
CCNc1cc(F)cc2c1[nH]c1ncc(-c3cncc(C#N)c3)c(-n3cc(CO)c(C(F)(F)F)n3)c12 [Example 5.01, 5-[8-(ethylamino)-6-fluoro-4-[4-(hydroxymethyl)-3-(trifluoromethyl)pyrazol-1-yl]-9H-pyrido[2,3-b]indol-3-yl]pyridine-3-carbonitrile] | 0.971 | ≤ 0.098 | – | – | –
CCNc1cc(F)cc2c1[nH]c1ncc(-c3cncc(C(=O)NC4(COC)CC4)c3)c(-n3ccc(C(F)(F)F)n3)c12 [Example 3.07, 5-[8-(ethylamino)-6-fluoro-4-[3-(trifluoromethyl)pyrazol-1-yl]-9H-pyrido[2,3-b]indol-3-yl]-N-[1-(methoxymethyl)cyclopropyl]pyridine-3-carboxamide] | – | – | 0.767 (≈ 1.35 µM) | – | –
CCNc1cc(F)cc2c1[nH]c1ncc(-c3cnc(OC4CCNC4)nc3)c(-n3ccc(C(F)(F)F)n3)c12 (centres unmarked) [Example 1.20, N-Ethyl-6-fluoro-3-(2-pyrrolidin-3-yloxypyrimidin-5-yl)-4-[3-(trifluoromethyl)pyrazol-1-yl]-9H-pyrido[2,3-b]indol-8-amine] | – | – | – | 1.48 | ≤ 0.098
CCNc1cc(F)cc2c1[nH]c1ncc(-c3cnc(O[C@@H]4CCNC4)nc3)c(-n3ccc(C(F)(F)F)n3)c12 [Example 1.55, N-ethyl-6-fluoro-3-[2-[(3R)-pyrrolidin-3-yl]oxypyrimidin-5-yl]-4-[3-(trifluoromethyl)pyrazol-1-yl]-9H-pyrido[2,3-b]indol-8-amine] | – | – | – | 1.03 | ≤ 0.098
CCNc1cc(F)cc2c1[nH]c1ncc(-c3cnc(O[C@H]4CCNC4)nc3)c(-n3ccc(C(F)(F)F)n3)c12 [Example 1.56, N-ethyl-6-fluoro-3-[2-[(3S)-pyrrolidin-3-yl]oxypyrimidin-5-yl]-4-[3-(trifluoromethyl)pyrazol-1-yl]-9H-pyrido[2,3-b]indol-8-amine] | – | – | – | 1 | ≤ 0.098
CCNc1cc(F)cc2c1[nH]c1ncc(-c3cncc(C#N)c3)c(-n3cc(C(N)=O)c(C(F)(F)F)n3)c12 [Example 4.01, 1-(3-(5-Cyanopyridin-3-yl)-8-(ethylamino)-6-fluoro-9H-pyrido[2,3-b]indol-4-yl)-3-(trifluoromethyl)-1H-pyrazole-4-carboxamide] | 1.74 | ≤ 0.098 | – | – | –
CCNc1cc(F)cc2c1[nH]c1ncc(-c3cnc4c(C#N)cnn4c3)c(-n3ccc(C(F)(F)F)n3)c12 [Example 1.59, 6-[8-(ethylamino)-6-fluoro-4-[3-(trifluoromethyl)pyrazol-1-yl]-9H-pyrido[2,3-b]indol-3-yl]pyrazolo[1,5-a]pyrimidine-3-carbonitrile] | 1.87 | 0.368 | – | – | –
CCNc1cc(F)cc2c1[nH]c1ncc(-c3cncc(Cc4nnc(C)o4)c3)c(-n3ccc(C(F)(F)F)n3)c12 [Example 1.58, N-ethyl-6-fluoro-3-[5-[(5-methyl-1,3,4-oxadiazol-2-yl)methyl]-3-pyridyl]-4-[3-(trifluoromethyl)pyrazol-1-yl]-9H-pyrido[2,3-b]indol-8-amine] | 1.52 | ≤ 0.098 | – | – | –
CCNc1cc(F)cc2c1[nH]c1ncc(-c3cncc(CO)c3)c(-n3ccc(C(F)(F)F)n3)c12 [Example 1.36, [5-[8-(Ethylamino)-6-fluoro-4-[3-(trifluoromethyl)pyrazol-1-yl]-9H-pyrido[2,3-b]indol-3-yl]-3-pyridyl]methanol] | 0.928 | ≤ 0.098 | – | – | –
CNc1cc(F)cc2c1[nH]c1ncc(-c3cncc(C#N)c3)c(-n3cc(C(F)(F)F)cn3)c12 [Example 1.08, 5-[6-Fluoro-8-(methylamino)-4-[4-(trifluoromethyl)pyrazol-1-yl]-9H-pyrido[2,3-b]indol-3-yl]pyridine-3-carbonitrile] | 1.25 | 0.102 | – | – | –
